Measurements as given in patent US11180504B2 (ORCHID PHARMA LTD., priority 2016, dated 2021).
Converted amounts (≈) assume the structure as drawn. Read-outs that look alike come from different tables or passages of the source.

Assays:
[1] = tested on: carbapenem sensitive Pseudomonas aeruginosa; assay: MIC by broth micro-dilution (CLSI), carbapenem sensitive P. aeruginosa; format: cell-based
[2] = tested on: methicillin-sensitive Staphylococcus aureus; assay: MIC by broth micro-dilution (CLSI), methicillin-sensitive S. aureus; format: cell-based; settings: MSSA S. aureus ATCC29213
[3] = tested on: carbapenemase producing K. pneumoniae; assay: MIC by broth micro-dilution (CLSI), carbapenemase producing K. pneumoniae; format: cell-based, Klebsiella pneumoniae
[4] = tested on: carbapenem sensitive Escherichia coli; assay: MIC by broth micro-dilution (CLSI), carbapenem sensitive E. coli; format: cell-based
[5] = Pseudomonas aeruginosa, ATCC27853, Meropenem susceptible P. aeruginosa ATCC27853, read-out: MIC
[6] = Staphylococcus aureus, ATCC 29213 / MSSA, read-out: MIC
[7] = Klebsiella pneumoniae, ATCCBAA1705, KPC-2 K. pneumoniae ATCC BAA-1705, read-out: MIC
[8] = Escherichia coli, ATCC25922, ESBL −ve E. coli ATCC25922, read-out: MIC

SMILES	MIC [1, 5] [mg/L]	MIC [2, 6] [mg/L]	MIC [3, 7] [mg/L]	MIC [4, 8] [mg/L]	MIC ([2]; Staphylococcus aureus, ATCC29213|MSSA, read-out: MIC) [mg/L]	MIC ([1]; Meropenem susceptible P. aeruginosa ATCC27853) [mg/L]	MIC [2] [mg/L]	MIC ([3]; KPC-2 K. pneumoniae ATCC BAA-1705) [mg/L]	MIC ([4]; ESBL −ve E. coli ATCC25922) [mg/L]
C[C@@H](NC(=O)Cn1cnnn1)[C@H]1C(=O)N2C(C(=O)O)=C(S[C@@H]3CN[C@H](C(=O)N4CCC5(CC4)CC(F)(F)CN5)C3)[C@H](C)[C@H]12 [Example 351, (4R,5S,6R)-6-((R)-1-(2-(1H-tetrazol-1-yl)acetamido)ethyl)-3-((3S,5S)-5-(3,3-difluoro-1,8-diazaspiro[4.5]decane-8-carbonyl)pyrrolidin-3-ylthio)-4-methyl-7-oxo-1-azabicyclo[3.2.0]hept-2-ene-2-carboxylic acid]	> 128	16 (≈ 25.7 µM)	4 (≈ 6.41 µM)	1 (≈ 1.6 µM)					
C[C@@H](NC(=O)Cn1cnnn1)[C@H]1C(=O)N2C(C(=O)O)=C(S[C@@H]3CN[C@H](C(=O)N4CC5CCNC5C4)C3)[C@H](C)[C@H]12 (stereo partly drawn) [Example 506, (4R,5S,6R)-6-((R)-1-(2-(1H-tetrazol-1-yl)acetamido)ethyl)-4-methyl-3-((3S,5S)-5-(octahydropyrrolo[3,4-b]pyrrole-5-carbonyl)pyrrolidin-3-ylthio)-7-oxo-1-azabicyclo[3.2.0]hept-2-ene-2-carboxylic acid]						1 (≈ 1.79 µM)	4 (≈ 7.15 µM)	1 (≈ 1.79 µM)	0.25 (≈ 0.447 µM)
C[C@@H](NC(=O)Cn1nnnc1C1CC1)[C@H]1C(=O)N2C(C(=O)O)=C(S[C@@H]3CN[C@H](C(=O)N(C)C)C3)[C@H](C)[C@H]12 [Example 378]	128 (≈ 240 µM)	4 (≈ 7.51 µM)	2 (≈ 3.75 µM)	0.25 (≈ 0.469 µM)					
C[C@@H](NC(=O)C(F)F)[C@H]1C(=O)N2C(C(=O)O)=C(SC[C@@H]3CNCCN3)[C@H](C)[C@H]12 [Example 289]	> 128	8 (≈ 19.1 µM)	16 (≈ 38.2 µM)	8 (≈ 19.1 µM)					
C[C@@H](NC(=O)C(F)F)[C@H]1C(=O)N2C(C(=O)O)=C(S[C@@H]3CN[C@H](C(=O)N4C[C@H](NC(=N)N)[C@@H](O)C4)C3)[C@H](C)[C@H]12 [Example 247]	> 128	32 (≈ 57.2 µM)	32 (≈ 57.2 µM)	4 (≈ 7.15 µM)					
C[C@@H](NC(=O)[C@@H]1CSCN1)[C@H]1C(=O)N2C(C(=O)O)=C(S[C@@H]3CN[C@H](C(=O)N(C)C)C3)[C@H](C)[C@H]12 [Example 270]	64 (≈ 129 µM)	4 (≈ 8.04 µM)	4 (≈ 8.04 µM)	1 (≈ 2.01 µM)					
CNCC(=O)N[C@H](C)[C@H]1C(=O)N2C(C(=O)O)=C(SC[C@@H]3C[C@H](NS(N)(=O)=O)CN3)[C@H](C)[C@H]12 [Example 269]	128 (≈ 261 µM)	16 (≈ 32.6 µM)	4 (≈ 8.15 µM)	4 (≈ 8.15 µM)					
C[C@@H](NC(=O)C(F)F)[C@H]1C(=O)N2C(C(=O)O)=C(S[C@@H]3CN[C@H](C(=O)N4CCc5nc(N)sc5C4)C3)[C@H](C)[C@H]12 [Example 235]	> 128	2 (≈ 3.5 µM)	16 (≈ 28 µM)	2 (≈ 3.5 µM)					
C[C@@H](NC(=O)CN1CCC2CNCCC21)[C@H]1C(=O)N2C(C(=O)O)=C(S[C@@H]3CN[C@H](C(=O)N(C)C)C3)[C@H](C)[C@H]12 (single isomer, unassigned) [Example 519]	> 128	16 (≈ 29.2 µM)	16 (≈ 29.2 µM)	2 (≈ 3.64 µM)					

The remaining molecules from weak to strong by MIC [1, 5], led by results:

MIC [1, 5] [mg/L]	MIC [2, 6] [mg/L]	MIC [3, 7] [mg/L]	MIC [4, 8] [mg/L]	MIC ([2]; Staphylococcus aureus, ATCC29213|MSSA, read-out: MIC) [mg/L]	MIC ([1]; Meropenem susceptible P. aeruginosa ATCC27853) [mg/L]	MIC [2] [mg/L]	MIC ([3]; KPC-2 K. pneumoniae ATCC BAA-1705) [mg/L]	MIC ([4]; ESBL −ve E. coli ATCC25922) [mg/L]	SMILES
32 (≈ 56.2 µM)	32 (≈ 56.2 µM)	8 (≈ 14 µM)	1 (≈ 1.76 µM)						C[C@@H](NS(=O)(=O)Cn1cnnn1)[C@H]1C(=O)N2C(C(=O)O)=C(S[C@@H]3CN[C@H](C(=O)N4CC[C@@H](N)C4)C3)[C@H](C)[C@H]12 [Example 380, (4R,5S,6S)-6-((R)-1-((1H-tetrazol-1-yl)methylsulfonamido)ethyl)-3-((3S,5S)-5-((R)-3-aminopyrrolidine-1-carbonyl)pyrrolidin-3-ylthio)-4-methyl-7-oxo-1-azabicyclo[3.2.0]hept-2-ene-2-carboxylic acid]
8 (≈ 13.3 µM)	16 (≈ 26.5 µM)	8 (≈ 13.3 µM)	2 (≈ 3.32 µM)						C[C@@H](NC(=O)Cn1cnnn1)[C@H]1C(=O)N2C(C(=O)O)=C(S[C@@H]3CN[C@H](C(=O)N4CCC(N5CC(N)C5)CC4)C3)[C@H](C)[C@H]12 [Example 342, (4R,5S,6R)-6-((R) - 1-(2-(1H-tetrazol-1-yl)acetamido)ethyl)-3-((3S,5S)-5-(4-(3-aminoazetidin-1-yl)piperidine-1-carbonyl)pyrrolidin-3-ylthino)-4-methyl-7-oxo-1-azabicyclo[3.2.0]hept-2-ene-2-carboxylic acid]
4 (≈ 7.28 µM)	4 (≈ 7.28 µM)	2 (≈ 3.64 µM)	0.5 (≈ 0.91 µM)						C[C@@H](NC(=O)Cn1cnnn1)[C@H]1C(=O)N2C(C(=O)O)=C(S[C@@H]3CN[C@H](C(=O)N4C[C@H](N)[C@@H](O)C4)C3)[C@H](C)[C@H]12 [Example 414, (4R,5S,6R)-6-((R)-1-(2-(1H-tetrazol-1-yl)acetamido)ethyl)-3-((3S,5S)-5-((3S,4S)-3-amino-4-hydroxypyrrolidine-1-carbonyl)pyrrolidin-3-ylthio)-4-methyl-7-oxo-1-azabicyclo[3.2.0]hept-2-ene-2-carboxylic acid]
4 (≈ 7.68 µM)	16 (≈ 30.7 µM)	2 (≈ 3.84 µM)	1 (≈ 1.92 µM)						C[C@@H](NC(=O)CC1CNC1)[C@H]1C(=O)N2C(C(=O)O)=C(S[C@@H]3CN[C@H](C(=O)N4CC[C@@H](N)C4)C3)[C@H](C)[C@H]12 [Example 568, (4R,5S,6R)-3-((3S,5S)-5-((R)-3-aminopyrrolidine-1-carbonyl)pyrroldin-3-ylthio)-6-((R)-1-(2-(azetidin-3-yl)acetamido)ethyl)-4-methyl-7-oxo-1-azabicyclo[3.2.0]hept-2-ene-2-carboxylic acid]
4 (≈ 6.78 µM)	4 (≈ 6.78 µM)	2 (≈ 3.39 µM)	0.5 (≈ 0.848 µM)						C[C@@H](NC(=O)Cn1cnnn1)[C@H]1C(=O)N2C(C(=O)O)=C(S[C@@H]3CN[C@H](C(=O)N4CCCN(C(=N)N)CC4)C3)[C@H](C)[C@H]12 [Example 517, (4R,5S,6R)-6-((R)-1-(2-(1H-tetrazol-1-yl)acetamido)ethyl)-3-((3S,5S)-5-(4-carbamimidoyl-1,4-diazepane-1-carbonyl)pyrrolidin-3-ylthio)-4-methyl-7-oxo-1-azabocyclo[3.2.0]hept-2-ene-2-carboxylic acid]
4 (≈ 7.3 µM)	2 (≈ 3.65 µM)	2 (≈ 3.65 µM)	0.25 (≈ 0.457 µM)						C[C@@H](NC(=O)Cn1cnnn1)[C@H]1C(=O)N2C(C(=O)O)=C(S[C@@H]3CN[C@H](CC(=O)N4CCC(N)C4)C3)[C@H](C)[C@H]12 (stereo in doubt) [Example 536, (4R,5S,6R)-6-((R)-1-(2-(1H-tetrazol-1-yl)acetamido)-ethyl)-3-((3S,5R)-5-(2-((R)-3-aminopyrrolidin-1-yl)-2-oxoethyl)pyrrolidin-3-ylthio)-4-methyl-7-oxo-1-azabicyclo[3.2.0]hept-2-ene-2-carboxylic acid]
1 (≈ 1.66 µM)		2 (≈ 3.31 µM)	0.25 (≈ 0.414 µM)	2 (≈ 3.31 µM)					C[C@@H](NC(=O)Cn1cnnn1)[C@H]1C(=O)N2C(C(=O)O)=C(S[C@@H]3CN[C@H](C(=O)N4CCC5CNCC5(CO)C4)C3)[C@H](C)[C@H]12 (single isomer, unassigned) [Example 535]
1 (≈ 1.78 µM)	1 (≈ 1.78 µM)	0.5 (≈ 0.89 µM)	0.25 (≈ 0.445 µM)						C[C@@H](NC(=O)Cn1cnnn1)[C@H]1C(=O)N2C(C(=O)O)=C(S[C@@H]3CN[C@H](C(=O)N4CCC(CN)CC4)C3)[C@H](C)[C@H]12 [Example 404, (4R,5S,6R)-6-((R)-1-(2-(1H-tetrazol-1-yl)acetamido)ethyl)-3-((3S,5S)-5-(4-(aminomethyl)piperidine-1-carbanoyl)pyrrolidin-3-ylthio)-4-methyl-7-oxo-1-azabicyclo[3.2.0]hept-2-ene-2-carboxylic acid]
1 (≈ 1.79 µM)	4 (≈ 7.15 µM)	1 (≈ 1.79 µM)	0.25 (≈ 0.447 µM)						C[C@@H](NC(=O)Cn1cnnn1)[C@H]1C(=O)N2C(C(=O)O)=C(S[C@@H]3CN[C@H](C(=O)N4CC5(CCNC5)C4)C3)[C@H](C)[C@H]12 [Example 501, (4R,5S,6R)-6-((R)-1-(2-(1H-tetrazol-1-yl)acetamido)ethyl)-3-((3S,5S)-5-(2,6-diazaspiro[3,4]octane-2-carbonyl)pyrrolidin-3-ylthio)-4-methyl-7-oxo-1-azabicyclo[3.2.0]hept-2-ene-2-carboxylic acid]
1 (≈ 1.74 µM)	4 (≈ 6.97 µM)	1 (≈ 1.74 µM)	0.125 (≈ 0.218 µM)						C[C@@H](NC(=O)Cn1cnnn1)[C@H]1C(=O)N2C(C(=O)O)=C(S[C@@H]3CN[C@H](C(=O)N4CC5CCNCC5C4)C3)[C@H](C)[C@H]12 (single isomer, unassigned) [Example 527]
0.5 (≈ 0.824 µM)	2 (≈ 3.3 µM)	1 (≈ 1.65 µM)	0.125 (≈ 0.206 µM)						C[C@@H](NC(=O)Cn1cnnn1)[C@H]1C(=O)N2C(C(=O)O)=C(S[C@@H]3CN[C@H](C(=O)N4CCN(C[C@@H](O)CN)CC4)C3)[C@H](C)[C@H]12 [Example 442, (4R,5S,6R)-6-((R)-1-(2-(1H-tetrazol-1-yl)acetamido)ethyl)-3-((3S,5S)-5-(4-((S)-3-amino-2-hydroxypropyl)piperazioe-1-carbonyl)pyrrolidin-3-ylthio)-4-methyl-7-oxo-1-azabicyclo[3.2.0]hept-2-ene-2-carboxylic acid]
